Source: ChEMBL document CHEMBL5038631, “2-(2-Hydroxyethyl)piperazine derivatives as potent human carbonic anhydrase inhibitors: Synthesis, enzyme inhibition, computational studies and antiglaucoma activity” (Eur J Med Chem, 2022)

Target: Carbonic anhydrase 9 (Homo sapiens, UniProt Q16790)
Test: Inhibition of human CA9 incubated for 15 mins prior to testing by phenol red dye based stopped flow CO2 hydration assay

SMILES | Ki [nM]
NS(=O)(=O)c1ccc(C(=O)N2CCNC[C@H]2CCO)cc1 | 60.5
NS(=O)(=O)c1ccc(C(=O)N2CCN(Cc3ccccc3)C[C@@H]2CCO)cc1 | 14.7
NS(=O)(=O)c1ccc(C(=O)N2CCN[C@H](CCO)C2)cc1 | 53.3
CN1CCN(C(=O)c2ccc(S(N)(=O)=O)cc2)[C@H](CCO)C1 | 24.9
NS(=O)(=O)c1ccc(C(=O)N2CCN(Cc3ccccc3)C[C@H]2CCO)cc1 | 35.2
CN1CCN(C(=O)c2ccc(S(N)(=O)=O)cc2)[C@@H](CCO)C1 | 31.2
NS(=O)(=O)c1ccc(C(=O)N2CCNC[C@@H]2CCO)cc1 | 51.9
CN1CCN(C(=O)c2ccc(S(N)(=O)=O)cc2)C[C@H]1CCO | 6.8
NS(=O)(=O)c1ccc(C(=O)N2CCN(Cc3ccccc3)[C@H](CCO)C2)cc1 | 59.9
CN1CCN(C(=O)c2ccc(S(N)(=O)=O)cc2)CC1CCO (racemic) | 6.8
NS(=O)(=O)c1ccc(C(=O)N2CCN(Cc3ccccc3)C(CCO)C2)cc1 (racemic) | 28.8
NS(=O)(=O)c1ccc(C(=O)N2CCNC(CCO)C2)cc1 (racemic) | 34.4
